In patent US20210353612A1, “HYPOXIA-INDUCIBLE FACTOR PROLYL HYDROXYLASE INHIBITORS FOR TREATING AGING-RELATED CONDITIONS” (BioAge Labs, Inc., priority 2020, published 2021):
“Also recorded” adds a separate entry of the source.

Assays:
[1] = tested on: 23-month-old and 27-month old C57BL/6 mice with anemia of inflammation; assay: Hemoglobin in aged mice with anemia of inflammation (elevated TNFα and/or IL-6), BGE-117 study; type: in vivo, mouse; settings: 10 mg/kg PO once daily
Description: The study included 23-month-old mice (n=39) (23-months old at the start of the experiment, and 24 months old at the end since the experiment lasted 35 days) and 27-month old mice (n=14) (27-months old at the start of the experiment, and 28 months old at the end since the experiment lasted 35 days) from strain C57BL/6 that were administered BGE-117 or vehicle once daily for a duration of […].
Once the 23 month old mice developed anemia of inflammation at 23-months (±2 weeks), mice were randomly divided into two groups: Anemia of inflammation vehicle-treated Control group 1 (“23-month Control Group” (CG1)) (n=18) and Anemia of inflammation BGE-117-treated group (“BGE-117 23-month Test Group” (BGE-117 TG1)) (n=21), while ensuring that the mean hemoglobin levels and inflammatory cytokine levels remained balanced among the groups.
Once the 27-month old mice developed anemia of inflammation at 27-months (±2 weeks), mice were randomly divided into two groups: Anemia of inflammation vehicle-treated Control group (“27-month Control Group” (CG2)) (n=8), Anemia of inflammation BGE-117-treated group (“BGE-117 27-month Test Group” (BGE-117 TG2)) (n=6), while ensuring that the mean hemoglobin levels remained balanced among the groups. The mice in the two “Anemia of inflammation” pre-treatment (baseline) groups had high (130% or higher of the median values) TNFα and/or IL-6 as indicated in FIGS. 11-12.
The 23-month old and 27-month old Test Groups BGE-117 TG1 and BGE-117 TG2 were administered 10 mg/kg of BGE-117 once daily for 5 weeks by oral gavage in 0.5% carboxymethylcellulose (CMC) and 0.5% Tween 80. The 23-month old and 27-month old Control Groups CG1 and CG2 were administered vehicle of 0.5% carboxymethylcellulose (CMC) and 0.5% Tween 80 by oral gavage on the same schedule.
Blood was collected from the submandibular vein at the start of the study immediately before drug administration, and after 14 days of drug administration. The blood samples was mixed with EDTA and analyzed using the Hemoglobin assay kit from Abcam (ab234046) with modification. The signal was read on Molecular Device SpectraMax 340PC-384. The inflammatory markers were measured by Luminex Mouse Magnetic Assay (5-PLEX, LXSAMSM-05 by R&D Systems) on Luminex 200. At day 35 post drug initiation the mice were anesthetized with isoflurane and blood samples were collected from abdominal vein.

[2] = tested on: 5/6 nephrectomized rats; settings: 5/6 nephrectomized rats (Kato et al. 2019); cited from earlier work
[3] = tested on: patients over 65 years of age with UAA; assay: Phase 2a, 12-week, randomized, double-blind, placebo-controlled study in Unexplained Anemia of Aging (UAA); type: in vivo, human; settings: elderly UAA subjects; 4-24 mg once daily, 12 weeks
Text: Study Title: A Phase 2a, 12-Week, Randomized, Double-Blind, Placebo-Controlled, Multi-Center Study to Evaluate Efficacy and Safety of BGE-117 in the Treatment of Unexplained Anemia of Aging (UAA)
This is a Phase II, randomized, double-blind, placebo-controlled multi-center study to compare the safety of BGE-117 when administered in patients over 65 years of age for 12 weeks. The study consists of 3 periods: Screening, Treatment, and Follow-up. FIG. 16 provides a summary of the study design.
The study size for this study is 160 evaluable subjects (80 subjects randomized to BGE-117 and 80 subjects randomized to placebo). The subject's maximum duration of participation is approximately 154 days. This includes 6 weeks for the Screening Period, 12 weeks for the Treatment Period, and 4 weeks for the Follow-up Period.
Subjects are advised to take IP with water once a day, recommended that the subject take the study medication 1 hour before their morning meal, starting on Visit 3 (Day 1), for 84 consecutive days, through Visit 15 (Day 85). Capsules are taken whole, not crushed, chewed, or cut.
This study is a double-blind, placebo-controlled study. Subjects are randomized to receive either of the following: • BGE-117: a hypoxia inducible factor-prolyl hydroxylase (HIF-PHD) inhibitor in 4 mg and 12 mg capsules; or • Placebo: matching capsule without active drug • The starting dose and maximum dose for BGE-117/placebo is based on a subject's screening renal function results: • The starting dose for subjects with an estimated glomerular filtration rate (eGFR) ≥60 mL/min/1.73 m2 is 12 mg/placebo. The maximum dose is 24 mg/placebo. • The starting dose for subjects with an eGFR between ≥30 and <60 mL/min/1.73 m^2is 4 mg/placebo. The maximum dose is 16 mg/placebo.
From Visits 5 through 11 (Days 15 through 57), dose adjustment opportunities are scheduled approximately every 14 days to achieve and maintain Hb within the target range. Dose adjustments are based on the local laboratory's results, with the goal of titrating Hb levels to a range of ≥12.0 to ≤13.0 g/dL. In the event of excessively rapid Hb increases or unacceptably high Hb levels or trends, in the investigator's opinion, the dose may be adjusted at any time, even on visits without a dose adjustment review.
• Improvement in Hb at Visit 15 (Day 85/EOTP) compared to baseline
• Improvement in FACIT-Fatigue Score at Visit 15 (Day 85/EOTP) compared to baseline
• Change in Hb at Visits 7, and 11 (Days 29, and 57) and Follow-up Visit compared to baseline • Improvement in FACIT-Fatigue score at Visits 7 and 11 (Day 29 and 57) and the Follow-up Visit compared to baseline • Change in SPPB Score at Visits 7, 11, and 15 (Day 29, 57, and 85), and Follow-up Visit compared to baseline • Change in 6MWT Distance at Visits 7, 11, and 15 (Days 29, 57, and 85) and the Follow-up Visit compared to baseline • Change in SF-36 at Visits 7, 11, and 15 (Days 29, 57, and 85) and the Follow-up Visit compared to baseline • Evaluate the starting dose of BGE-117 in the treatment of UAA for subjects with eGFR ≥60 mL/min/1.73 m^2 and subjects with eGFR ≥30 and <60 mL/min/1.73 m^2
Change in Hb is the primary endpoint and is a direct assessment of the disease of unexplained anemia in aging patients. Changes in FACIT-Fatigue is the key secondary endpoint. Analysis of both of these endpoints is an ANCOVA with baseline covariates. Testing for FACIT-Fatigue is done only after achieving statistical significance for the change in Hb.

[4] = tested on: aged C57BL/6 mice; assay: Hemoglobin levels in aged mice (Hb assay kit ab234046); type: in vivo, mouse; settings: for Hemoglobin concentration vs vehicle control (FIG. 4B): after 14 days of treatment; for Hemoglobin levels in aged mice, Mean: 27-month-old mice
Description: (§1) In this study, aged mice were treated with BGE-117 daily for 35 days. Daily voluntary running wheel activity levels, as well as hemoglobin levels at Days 0 and 14, were measured. The effects of the BGE-117 compound were examined for the reversal of frailty in mice.
The BGE-117 compound for the TA-1 treatment group was formulated in 0.5% carboxymethylcellulose (CMC) and 0.5% Tween 80 and constituted at a concentration of 1 mg/ml. The test article for the Control group included 0.5% CMC and 0.5% Tween 80, acting as a vehicle control. Mice were treated with BGE-117 at a concentration of 1 mg/ml at a volume of 300 μl/mouse (0.3 ml/mouse), for 0.3 mg/dose (TA-1); control group mice (TA-2) were administered a vehicle control at a dose volume of 0.3 ml/mouse. Administration was oral, once per day.
Using a 4 mm lancet, approximately 150 microliters of whole blood was collected from the submental vein, utilizing the submandibular vein as back-up. Blood was collected using 500 microliter Serum Separator tubes and stored at room temperature for 45 minutes or until clotted. Blood was centrifuged at 4000 RPM for 10 minutes in at 4° C. If the serum was not analyzed immediately, the serum was apportioned into 0.5 ml aliquots, stored, and transported at −80° C.
The following procedure was performed for the hemoglobin assay: • 1. Mouse blood was collected in Li-heparin tubes. • 2. Blood was briefly vortexed and 2 μl of whole blood was transferred into a 96-well clear plate containing 18 μl of distilled water. • 3. 160 μl sample buffer was added to the 96-well clear plate from the Hemoglobin Assay Kit (ab234046). • 4. 20 μl 1N NaOH was added to blood samples to the diluted sample in each well. • 5. The standard curve was established with included hemoglobin standard (ab234046) as per the manufacturer's instruction. • 6. The reaction was incubated at room temperature for 8-15 minutes. Read absorbance at 575 nm in end point mode. • 7. Hb concentration was calculated as recommended by the assay kit.

[5] = tested on: 27-month-old C57BL/6 mice; assay: Activity monitoring wheel test (voluntary running wheel activity) in aged mice; type: in vivo, mouse; settings: 27-month-old mice; 0.3 mg/dose PO once daily for 35 days
Description: as §1
The animals were housed with access to voluntary running wheels that wirelessly transmit running data to a computer for analysis. The outcome of interest was the median number of daily wheel rotations generated by mice in each group (n=9 per group), and this is shown as the dots in FIG. 6 (one median number of rotations per day per group) and also as the numbers on the right. […]
The first day of the study (Study Day 1) started with Animal Acclimation, followed by the BGE-117 treatment start date on Study Day 33 (Phase Day 1). […] For the frailty portion of the study, mice were assessed using an activity monitoring wheel which was monitored passively with a computer monitoring system. […]
The activity monitoring wheel is a running disk that monitors rotations. […] Activity was monitored passively and wirelessly with a computer monitoring system. Running wheel activity levels were monitored daily. […]
The wheels were electronically monitored and the number of rotations of the wheel per minute was recorded continuously throughout the entire study.

[6] = tested on: patients with chronic kidney disease and normal healthy human volunteers; settings: patients with chronic kidney disease and normal healthy human volunteers (Shinfuku et al. 2018); cited from earlier work
[7] = tested on: HIF prolyl hydroxylase (PHD) 1/2/3; settings: cited from earlier work

O=C(O)CNC(=O)C1=C(O)CCN(Cc2ccc(Oc3ccc(Cl)cc3)nc2)C1=O [BGE-117, N-[(1{[6-(4-chlorophenoxy)-3-pyridinyl]methyl}-4-hydroxy-2-oxo-1,2,5,6-tetrahydro-3-pyridinyl)carbonyl]glycine]
Hb levels of Test Groups vs Control Groups administered vehicle alone ([1]; 23-month old and 27-month old Test Groups): significantly increased Hb levels | Hemoglobin levels before vs after treatment (FIG. 9B) ([1]; 23-month-old mice with elevated TNFα, after two weeks): significant increases in hemoglobin levels | Hemoglobin levels before vs after treatment (FIG. 10B) ([1]; 23 month old mice with elevated IL-6, after two weeks): Highly significant improvements in hemoglobin levels | Hemoglobin levels before vs after treatment (FIG. 12B) ([1]; 27-month old mice with elevated IL-6, after two weeks): Significant improvements in hemoglobin levels | Hemoglobin levels before vs after treatment (FIG. 11B) ([1]; 27-month-old mice with elevated TNFα, after two weeks): Significant improvements in hemoglobin levels | Hemoglobin levels [2]: increase hemoglobin levels | Activity levels and sleep quality compared to baseline [3]: Improve activity levels and sleep quality | Fatigue (FACIT-Fatigue Score) compared to baseline [3]: Reduce fatigue | Hemoglobin levels compared to baseline [3]: Increase hemoglobin levels | Oxygen delivery, mobility, QOL, and energy levels [3]: Improve oxygen delivery, mobility, QOL, and energy levels | Physical activity (SPPB scores, 6MWT, grip strength test) compared to baseline [3]: Improve physical activity | Hemoglobin concentration vs vehicle control (FIG. 4B) ([4]; 23-month old mice): significant increase of hemoglobin levels | Hemoglobin concentration vs vehicle control (FIG. 4B) ([4]; 27-month old mice): significant increase of hemoglobin levels | Hemoglobin levels in aged mice, Mean ([4]; Week 0 (before treatment), BGE-117 group): 10.98 g/dL | Hemoglobin levels in aged mice, Mean ([4]; Week 2, 0.3 mg/dose PO once daily): 19 g/dL | Voluntary running wheel activity (median daily wheel rotations) vs age-matched controls [5]: statistically significant (p<0.001) increase in voluntary activity; also recorded: significantly increased activity | EPO production [6]: increase EPO production | HIF prolyl hydroxylase inhibition, type [7]: competitive HIF prolyl hydroxylase (PHD) 1/2/3 pan-inhibitor
